Results: patent US5580956A, “Phospholipase C-inhibiting peptides” (priority 1992, dated 1996)
In brackets after ≈: the same amount, converted by molar mass. Peptide text beside a SMILES is read from it. * marks the point of attachment. Cyclopentanecarbonyl = O=C(C1CCCC1)*; Hexanoyl = CCCCCC(=O)*

What was measured:
PLC-γ1 = target: T1, PLC-γ1 (Bos taurus, UniProt P08487); assay: PLC-inhibiting activity (release of [3H]inositol phosphate from [3H]PIP2); type: biochemical, bovine; details: PI-PLC-γ1, 37° C., 10 minutes, read-out: Inhibition rate (%); for inhibition at 130 µM (stock): Concentration 130 μM (aqueous solution of test peptide)
T1 construct: A sample (PLC-γ1) was prepared from bovine thymus according to the method of Y. Homma et al; from tissue; host or cells: bovine thymus
T1 sequence (P08487 1-1291): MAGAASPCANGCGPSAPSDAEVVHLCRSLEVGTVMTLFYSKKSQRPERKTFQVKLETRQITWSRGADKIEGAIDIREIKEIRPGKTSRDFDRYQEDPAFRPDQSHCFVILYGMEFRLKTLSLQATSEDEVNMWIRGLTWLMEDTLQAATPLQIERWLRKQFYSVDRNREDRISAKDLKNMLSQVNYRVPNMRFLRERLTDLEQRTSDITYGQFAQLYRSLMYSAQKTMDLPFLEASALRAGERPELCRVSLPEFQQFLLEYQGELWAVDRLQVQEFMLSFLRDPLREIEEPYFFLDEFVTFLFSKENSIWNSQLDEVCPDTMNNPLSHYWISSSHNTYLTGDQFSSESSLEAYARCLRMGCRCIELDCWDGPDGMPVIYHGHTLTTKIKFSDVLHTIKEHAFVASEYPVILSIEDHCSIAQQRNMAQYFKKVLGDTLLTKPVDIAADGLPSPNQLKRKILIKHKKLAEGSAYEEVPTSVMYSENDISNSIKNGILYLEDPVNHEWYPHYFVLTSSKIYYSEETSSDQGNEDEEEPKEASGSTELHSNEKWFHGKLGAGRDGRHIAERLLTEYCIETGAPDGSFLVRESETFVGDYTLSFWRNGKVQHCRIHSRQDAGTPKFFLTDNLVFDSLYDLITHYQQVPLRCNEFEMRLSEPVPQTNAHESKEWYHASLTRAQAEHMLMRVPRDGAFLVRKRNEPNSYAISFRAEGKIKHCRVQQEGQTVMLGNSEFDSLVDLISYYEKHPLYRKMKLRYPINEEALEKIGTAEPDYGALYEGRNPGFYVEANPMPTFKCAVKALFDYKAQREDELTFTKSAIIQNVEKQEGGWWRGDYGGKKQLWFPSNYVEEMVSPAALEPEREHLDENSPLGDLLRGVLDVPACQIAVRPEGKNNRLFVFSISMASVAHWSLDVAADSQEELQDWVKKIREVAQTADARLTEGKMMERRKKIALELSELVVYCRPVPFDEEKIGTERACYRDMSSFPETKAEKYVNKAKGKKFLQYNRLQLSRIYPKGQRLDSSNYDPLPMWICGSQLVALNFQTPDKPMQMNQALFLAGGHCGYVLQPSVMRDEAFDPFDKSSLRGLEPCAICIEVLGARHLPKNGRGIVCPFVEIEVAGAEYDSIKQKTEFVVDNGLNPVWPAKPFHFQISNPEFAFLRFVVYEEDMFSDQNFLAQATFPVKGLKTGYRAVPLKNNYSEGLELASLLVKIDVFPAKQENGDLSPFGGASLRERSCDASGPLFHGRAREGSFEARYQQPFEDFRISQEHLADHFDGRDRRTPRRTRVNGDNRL
Experimental: A sample (PLC-γ1) was prepared from bovine thymus according to the method of Y. Homma et al. described in Biochemical Journal [(Biochem. J.), 269, 13 (1990)]. A solution having the composition listed in Table 1 below was prepared in advance on the ice and the reaction was begun with heating to 37° C. After incubation for 10 minutes, 2 ml of a solution mixture of chloroform/methanol (2:[…]) was added thereto to stop the reaction. The resulting inositol phosphate was extracted with 0.5 ml of 1N hydrochloric acid. Two-phase distribution was carried out by centrifugation (2000×g, 3 minutes), and the amount of ^3 H contained in 0.7 ml of the supernatant was measured with scintillation counter. […] The obtained value of specific radioactivity was defined as "A", the value of specific radioactivity obtained when an equivalent amount of water was added instead of the aqueous solution of the test peptide was defined as "B", the value of specific radioactivity obtained when an equivalent amount of water was added instead of the sample and the aqueous solution of the test peptide was defined as "C", and the inhibition rate (X) was determined according to the following equation. X(%)=[…]

KMS-4 cells = assay: Cell proliferation-inhibiting activity (BrdU incorporation, Amersham Cell Proliferation Detection Kit); type: cell-based; details: Concentration 31 μM, 17 hours with peptide, BrdU-stained cells
Experimental: The following procedure was carried out with an Amersham Cell Proliferation Detection Kit. First, cells [KMS-4; M. Nanba et al., International Journal of Cancer, 32, 697 (1983)] were suspended in a DMEM culture medium (product of Nissui Seiyaku) containing 10% fetal calf serum to a concentration of 1-2×10^4 cells/ml, and 1 ml of the above-mentioned cell suspension was put into each well of a 24-well plate (product of Corning Co.). The cells were cultured for 2 days in a CO2 incubator (37° C., 5% CO2). Next, the culture medium was exchanged with a DMEM medium containing 10% fetal calf serum, and then the test peptide was added thereto and culturing was carried out for 17 hours. The culture medium was again exchanged with a serum-free DMEM medium, 0.5 ml of a solution of the reagents labelled 5-bromo-2'-deoxyuridine (BrdU) and 5-fluoro-2'-deoxyuridine (FdU) [10:1] diluted 1000-fold with the same medium was added to each well, and cultured for 2 hours. The culture medium was removed, and the cells were immobilized with an acetic acid/ethanol solution. The immobilized cells were stained according to the method for the Amersham Cell Proliferation Kit, and then further stained with a 1% Giemsa solution (product of Merck Co.). The number of cells incorporating BrdU and the total cell count within 1 field of vision of the microscope (approximately 200 cells) were determined, and the proportion (%) of stained cells per field of vision was calculated. Furthermore, the same procedure was repeated 10 times, and the average value thereof was defined as the cell proliferation activity (%). The cell proliferation-inhibiting activity was calculated in the following manner. The proliferation activity without addition of peptide was defined as "A", the proliferation activity with addition of the test peptide was defined as "B", and the cell proliferation inhibition rate (X) was determined according to the following equation. X (%)=[…]

[1] = system: Proteus vulgaris ATCC6897; type: cell-based; details: ATCC6897, pH 7
Experimental: (§1) The antibacterial activity was determined by the agar dilution method using a culture medium (pH 7.0) containing 3 g/l bactotrypton (product of Difco Co.), 1 g/l meat extract, 1 g/l glucose and 16 g/l agar.

[2] = system: Pseudomonas aeruginosa Bin H No. 1; type: cell-based; details: Bin H No. 1, pH 7
Experimental: as §1

[3] = system: Bacillus subtilis No. 10107; type: cell-based; details: No. 10107, pH 7
Experimental: as §1

[4] = system: Enterococcus faecium ATCC10541; type: cell-based; details: ATCC10541, pH 7
Experimental: as §1

[5] = system: Salmonella typhi ATCC9902; type: cell-based; details: agar dilution, medium pH 7.0
Experimental: as §1

Shigella sonnei ATCC9290 = assay: Antibacterial activity, agar dilution method; type: cell-based; details: medium pH 7.0
Experimental: as §1

Row | Compound | inhibition at 130 µM (stock) (PLC-γ1) | Cell proliferation inhibition rate (%) (KMS-4 cells) | MIC [1] | MIC [2] | MIC [3] | MIC [4] | MIC [5] | MIC (Shigella sonnei ATCC9290) | inhibition at 160 µM (stock) (PLC-γ1; Concentration 160 μM (aqueous solution of test peptide))
1 | CSCC[C@H](NC(=O)[C@H](CCCCN)NC(=O)[C@H](CCCNC(=N)N)NC(=O)[C@H](Cc1ccc(O)cc1)NC(=O)[C@H](CC(C)C)NC(=O)C1CCCC1)C(=O)N[C@@H](CCCNC(=N)N)C(=O)N[C@@H](CC(C)C)C(=O)N[C@@H](CCCNC(=N)N)C(=O)N[C@@H](Cc1ccc(O)cc1)C(=O)N1CCC[C@H]1C(=O)N[C@H](C(N)=O)C(C)C [(I-26), C5 H9 CO-Leu-Tyr-Arg-Lys-Met-Arg-Leu-Arg-Tyr-pro-Val-NH2] (Cyclopentanecarbonyl-LYRKMRLRYPV-NH2) | 23% | 71% | 83 µg/mL (≈ 52.2 µM) | 42 µg/mL (≈ 26.4 µM) |  |  |  |  | 
2 | CCCCCC(=O)N[C@@H](CC(C)C)C(=O)N[C@@H](Cc1ccc(O)cc1)C(=O)N[C@@H](CCCNC(=N)N)C(=O)N[C@@H](CCCCN)C(=O)N[C@@H](CCSC)C(=O)N[C@@H](CCCNC(=N)N)C(=O)N[C@@H](CC(C)C)C(=O)N[C@@H](CCCNC(=N)N)C(=O)N[C@@H](Cc1ccc(O)cc1)C(=O)N1CCC[C@H]1C(=O)N[C@H](C(N)=O)C(C)C [(I-27), CH3 (CH2)4 CO-Leu-Tyr-Arg-Lys-Met-Arg-Leu-Arg-Tyr-Pro-Val-NH2] (Hexanoyl-LYRKMRLRYPV-NH2) | 35% | 28% | 83 µg/mL (≈ 52.1 µM) | 42 µg/mL (≈ 26.4 µM) | 83 µg/mL (≈ 52.1 µM) | 83 µg/mL (≈ 52.1 µM) | 83 µg/mL (≈ 52.1 µM) | 83 µg/mL (≈ 52.1 µM) | 
3 | Ac-YRKMRLRY-NH2 [Compound (I-10), CH3 CO-Tyr-Arg-Lys-Met -Arg-Leu-Arg-Tyr-NH2] |  |  | 83 µg/mL | 83 µg/mL | 83 µg/mL | 83 µg/mL |  |  | 26%
